The subject of assay [1] is IL-2 induced STAT5 phosphorylation in wild type CD8 T cells. Description: IL-2 induced STAT5 phosphorylation in wild type T cells. The class given is cell-based, mouse. The following applies: inhibitor 30 min, 10 ng/ml IL-2 30 min. The method, then:
(§1) (A) Single cell suspensions were prepared from the spleens of wild type mice. […] Cells were then stimulated with 10 ng/ml IL-4 for 30 min and the levels of phosphorylated STAT6 determined by immunoblotting. (B) As (A) except cells were stimulated with 10 ng/ml IL-2 and the levels of phosphorylated STAT5 determined. (C) CD8 T cells were expanded from the lymph nodes of wild type and JAK3 Cys905Ser knockin mice. Cells were rested in the absence of IL-2 for 60 min then incubated with the indicated concentrations of PF-06651600 for a further 30 min before stimulation with 10 ng/ml of IL-2 for 30 min. The levels of phosphorylated STAT5 and total ERK1/2 were then determined.
(§2) Lymph Nodes were harvested from the mice and a single cell suspension in PBS made by passing the tissue through a […] strainer. The cells were counted and seeded at density of 10^6 cells/ml in RPMI supplemented with10% heat inactivated FBS (Labtech), 2 mM L-glutamine, 100 U/ml penicillin G, 100 μg/ml streptomycin, 0.25 μg/ml amphotericin and 50 μM β-mercaptoethanol and stimulated with 1 μg/ml anti-CD28 (cat:16-0281-82; clone:37.51 Thermo Fisher), 1 μg/ml anti CD3e (cat:16-0031-85, Clone:145-2C11 Thermo Fisher), 20 ng/ml of IL-2 and 1 ng/ml of IL-12. The cells were cultured for 36 h and then the cell suspension was diluted 5 times with RPMI media containing 20 ng/ml of IL-2. […]

Assay [2] deals with IL-2 induced STAT5 phosphorylation in T cells from JAK3 Cys905Ser knockin mice. The assay is described as follows: IL-2 induced STAT5 phosphorylation in JAK3 Cys905Ser knockin T cells. The class given is cell-based, mouse. The following applies: CD8 T cells, inhibitor 30 min, 10 ng/ml IL-2 30 min. The method, then: as §1, §2
For the next assay, the system named is JAK3. The following applies: ATP 4 μM; read-out: In vitro IC50 JAK3; cited from earlier work.
For another assay, the system named is JAK1. The following applies: ATP 40 μM; read-out: In vitro IC50 JAK1; cited from earlier work.
The test system of the next assay is JAK2. Particulars: ATP 4 μM; read-out: In vitro IC50 JAK2; cited from earlier work.
Another assay concerns the target PRK2 (Homo sapiens, UniProt Q16513). Description: Selectivity screen PRK2. Format: biochemical. The following applies: 1 µM inhibitor, mean. The protocol:
(§3) For the in vitro kinase assay, JAK3 (5–20 mU diluted in 50 mM Tris pH 7.5, 0.1 mM EGTA, 0.05% β-mercaptoethanol, 1 mg/ml BSA) was assayed against PDKtide ([…]) in a final volume of 25.5 µl containing 50 mM Tris pH 7.5, 0.1 mM EGTA, 0.05% β-mercaptoethanol, 100 µM substrate peptide, 10 mM magnesium acetate and 0.02 mM [33P-γ-ATP] (50–1000 cpm/pmole) and incubated for 30 min at room temperature. Assays were started by the addition of the ATP and stopped by addition of 5 µl of 0.5 M (3%) orthophosphoric acid and then harvested onto P81 Unifilter plates with a wash buffer of 50 mM orthophosphoric acid. To determine the Km for ATP, assays were run using 1, 5, 10, 20, 50, 100, 200, 400, 500 μM ATP and Km derived by non-linear regression fitting to the Michaelis–Menten equation v = Vmax[S]/(Km + [S]). IC50 values for inhibitors via non-linear regression using a parameter model: Y = Bottom + (Top–Bottom)/(1 + (IC50/X)^HillSlope). Non-linear regression was carried out in Prism (version 8). In vitro selectivity screen was carried out as described previously.

Assay [3] concerns GM-CSF induced STAT5 phosphorylation in BMDMs. On the set-up: method as in PMID 26258521. Particulars: 5 μM; cited from earlier work.
For assay [4], the system named is IL-10 induced STAT3 phosphorylation in BMDMs. Also on record: method as in PMID 26258521. The following applies: cited from earlier work.
For assay [5], the system named is IFNβ induced STAT1 phosphorylation in BMDMs. Also on record: method as in PMID 26258521. Particulars: cited from earlier work.
The next assay has as its target PKBa (Homo sapiens, UniProt P31749). The assay is described as follows: Selectivity screen PKBa. Particulars: 1 µM inhibitor, mean; read-out: activity remaining in the presence of the inhibitor: PKBa. The class given is biochemical. The protocol:
as §3

This is an account of results in publication PMC8115619, “Generation of a chemical genetic model for JAK3” (Scientific Reports, 2021).

Molecules are shown by their SMILES. pIC50: −log10 of the molar value. A value given as a limit tells only on which side of the number the result lay.

Chain of PRK2 (Q16513 whole entry): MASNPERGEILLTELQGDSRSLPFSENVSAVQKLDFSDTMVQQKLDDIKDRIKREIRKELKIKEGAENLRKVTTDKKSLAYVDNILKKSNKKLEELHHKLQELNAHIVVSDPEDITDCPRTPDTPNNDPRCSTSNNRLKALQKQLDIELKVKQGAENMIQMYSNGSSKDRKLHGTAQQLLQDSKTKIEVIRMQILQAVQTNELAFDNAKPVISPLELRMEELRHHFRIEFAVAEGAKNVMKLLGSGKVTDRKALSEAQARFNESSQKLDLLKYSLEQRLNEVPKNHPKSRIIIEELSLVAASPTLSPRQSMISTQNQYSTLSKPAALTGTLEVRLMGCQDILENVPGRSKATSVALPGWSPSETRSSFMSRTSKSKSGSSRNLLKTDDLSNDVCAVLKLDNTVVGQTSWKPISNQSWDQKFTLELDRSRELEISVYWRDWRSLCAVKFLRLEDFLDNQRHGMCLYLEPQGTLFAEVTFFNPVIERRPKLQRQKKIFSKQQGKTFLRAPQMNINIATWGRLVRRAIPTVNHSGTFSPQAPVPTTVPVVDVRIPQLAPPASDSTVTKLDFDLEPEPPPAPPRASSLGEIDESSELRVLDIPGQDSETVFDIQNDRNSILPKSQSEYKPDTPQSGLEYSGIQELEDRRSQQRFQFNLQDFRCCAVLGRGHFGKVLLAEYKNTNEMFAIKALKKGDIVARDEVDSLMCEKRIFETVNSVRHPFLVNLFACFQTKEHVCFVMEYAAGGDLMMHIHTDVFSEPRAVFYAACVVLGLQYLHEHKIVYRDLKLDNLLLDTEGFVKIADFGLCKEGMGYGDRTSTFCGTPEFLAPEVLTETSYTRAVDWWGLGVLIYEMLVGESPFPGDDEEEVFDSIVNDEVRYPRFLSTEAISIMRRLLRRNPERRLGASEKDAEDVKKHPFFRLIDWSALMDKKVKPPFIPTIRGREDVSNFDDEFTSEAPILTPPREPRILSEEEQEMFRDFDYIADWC
Chain of PKBa (P31749 whole entry): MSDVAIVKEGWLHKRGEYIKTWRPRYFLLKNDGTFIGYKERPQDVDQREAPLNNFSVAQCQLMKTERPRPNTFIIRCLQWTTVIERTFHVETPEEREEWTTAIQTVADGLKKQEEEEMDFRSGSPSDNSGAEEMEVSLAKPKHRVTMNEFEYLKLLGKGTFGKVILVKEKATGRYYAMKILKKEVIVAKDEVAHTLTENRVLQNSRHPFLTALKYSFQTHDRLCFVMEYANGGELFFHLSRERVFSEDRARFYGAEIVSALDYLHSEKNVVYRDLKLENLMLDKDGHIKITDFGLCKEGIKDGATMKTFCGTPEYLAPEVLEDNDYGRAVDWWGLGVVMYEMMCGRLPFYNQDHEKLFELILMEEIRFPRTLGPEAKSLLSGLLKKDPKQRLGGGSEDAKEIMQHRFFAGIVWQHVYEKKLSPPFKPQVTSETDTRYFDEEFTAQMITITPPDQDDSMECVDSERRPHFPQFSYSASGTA

For the molecule `C=CC(=O)N1C[C@H](Nc2ncnc3[nH]ccc23)CC[C@@H]1C` [PF-06651600, 1-((2S,5R)-5-((7H-Pyrrolo[2,3-d]pyrimidin-4-yl)amino)-2-methylpiperidin-1-yl)prop-2-en-1-one, reference compound], the “block of IL-2 induced STAT5 phosphorylation in isolated wild type T cells” value in assay [1] was “able to block”. For the same molecule, the “block of IL-2 induced STAT5 phosphorylation in T cells from JAK3 Cys905Ser knockin mice” value in assay [2] was “did not block”. Further, the pIC50 (as a rule, the IC50 on a negative log10 scale, so that one unit is a factor of ten) is […] in the assay on JAK3, < 5.00 with JAK1 and < 5.00 in the assay on JAK2.
With `C=CC(=O)Nc1cccc(CNc2nc(Nc3ccc(N4CCN(C)CC4)cc3OC)ncc2Cl)c1` [TL6-144], the “activity remaining in the presence of the inhibitor: PRK2” value on PRK2 came out at 78. In addition, the “inhibition of GM-CSF signaling in macrophages” value in assay [3] is “does not inhibit”. Besides, the “inhibition of IL-10 signaling in macrophages” value in assay [4] (5 μM) was “does not inhibit”. Besides, the “block of STAT phosphorylation by IL-10” value in assay [4] (10 μM as printed in discussion) is “did not block”. For the same molecule, the “inhibition of IFNβ signaling in macrophages” value in assay [5] (5 μM) is “does not inhibit”. Moreover, in [5] (10 μM as printed in discussion), the “block of STAT phosphorylation by IFNβ” value was “did not block”.
As to `C=CC(=O)Nc1cccc(CNc2nc(Nc3ccc(N4CCOCC4)cc3)ncc2Cl)c1` [TL8-52], the remaining activity (commonly what remains of the control signal, in per cent) at 1 µM at PKBa is 100%. The “activity remaining in the presence of the inhibitor: PRK2” value at PRK2 is on record as 52.
